This note sets out measurements from US5496835A, “Heterocyclic compounds having angiotensin II antagonistic activity and use thereof” (Takeda Chemical Industries, Ltd., priority 1992, dated 1996).

Structures are written as SMILES.

In assay [1] the test system is pressor action of AII. Kind of assay: Inhibitory effect on pressor action of AII in rats after oral administration. The assay is classed as in vivo, Jcl:SD rats. The note with it: 1 mg/kg p.o., percent inhibition of pressor action of AII 100 ng/kg i.v. The procedure: Jcl:SD rats (9 week old, male) were used. On the previous day of the experiment, these animals were applied with cannulation into the femoral artery and vein under anesthesia with pentobarbital Na. These animals were fasted but allowed to access freely to drinking water until the experiment was started. Just on the day of conducting the experiment, the artery cannula was connected with a blood-pressure transducer, and the average blood pressure was recorded by means of polygraph. Before administration of the drug, the pressor action due to intravenous administration of AII (100 ng/kg) as the control was determined. The drugs were orally administered, then, at each point of the determination, AII was administered intravenously, and the pressor action was similarly determined. By comparing the pressor action before and after administration of the drug, the percent inhibition by the drug was evaluated.

Assay [2] has as its target T1, AII receptor (Bos taurus, UniProt P25104).
T1 construct: An AII receptor membrane fraction was prepared from bovine adrenal cortex; from tissue; host or cells: bovine adrenal cortex, membrane fraction
T1 sequence (P25104 1-359): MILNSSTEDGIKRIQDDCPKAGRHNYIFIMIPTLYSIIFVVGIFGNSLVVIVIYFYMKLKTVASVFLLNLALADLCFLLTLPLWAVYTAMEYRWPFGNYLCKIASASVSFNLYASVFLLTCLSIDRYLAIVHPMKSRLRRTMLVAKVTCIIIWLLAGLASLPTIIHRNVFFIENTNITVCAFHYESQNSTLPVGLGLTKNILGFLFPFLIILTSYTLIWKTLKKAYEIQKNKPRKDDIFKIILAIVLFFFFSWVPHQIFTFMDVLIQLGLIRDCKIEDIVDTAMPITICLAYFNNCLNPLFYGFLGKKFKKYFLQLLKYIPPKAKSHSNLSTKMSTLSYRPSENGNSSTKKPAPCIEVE
Kind of assay: Inhibition of binding of 125I-angiotensin II to AII receptor membrane fraction. The following applies: bovine adrenal cortex membrane fraction, 125I-AII, read-out: Binding-inhibitory action (rate) %; for inhibition at 1 µM: compound 10^-6 M; for inhibition at 0.1 µM: compound 10^-7 M. The protocol: An experiment of inhibition on the binding of angiotensin II (AII) to AII receptor was conducted by modifying the method of Douglas et al. [Endocrinology, 102, 685-696 (1978)]. An AII receptor membrane fraction was prepared from bovine adrenal cortex.
The compound of the present invention (10^-6 M or 10^-7 M) and ^125 I-angiotensin II (^125 I-AII) (2.44kBq/50 μl) were added to the receptor membrane fraction, and the mixture was incubated at room temperature for one hour. The receptor-bound and free ^125 I-AII were separated through a filter (Whatman GF/B filter), and the radioactivity of ^125 I-AII bound to the receptor was determined.

Consider `CCCCc1n[nH]c(C(=O)O)c1Cc1ccc(-c2ccccc2-c2nc(=O)o[nH]2)cc1` [Working Example 2, 3-Butyl-4-[2'-(2,5-dihydro-5-oxo-1,2,4-oxadiazol-3-yl)biphenyl-4-yl]methylpyrazole-5-carboxylic acid], for which the Pressor-inhibitory action result in assay [1] was “+ (50% > +-)”. For the same molecule, in assay [2], the inhibition at 1 µM is 68% and the inhibition at 0.1 µM came to 30%.
Turning to `CCCCc1nn(-c2ccccc2Cl)c(C(=O)O)c1Cc1ccc(-c2ccccc2-c2nsc(=O)[nH]2)cc1` [compound 8], the Pressor-inhibitory action result in assay [1] was “+++ (+++ ≥ 70%)”. Further, the inhibition at 1 µM in assay [2] turned out to be 37%.
With `CCCCc1n[nH]c(C(=O)OC)c1Cc1ccc(-c2ccccc2-c2nsc(=O)[nH]2)cc1` [compound 3], the Pressor-inhibitory action result in assay [1] is listed as “+++ (+++ ≥ 70%)”. In assay [2], the inhibition at 1 µM is 17% and the inhibition at 0.1 µM is 7%.
As for `CCCCc1nn(-c2ccccc2Cl)c(C(=O)O)c1Cc1ccc(-c2ccccc2-c2noc(=O)[nH]2)cc1` [compound 6], the Pressor-inhibitory action result in assay [1] is recorded as “++ (70% > ++ ≥ 50%)”. For the same molecule, the inhibition at 1 µM in assay [2] is 32%.
